Compound in the test: O=C(O)C(Cc1ccccc1[N+](=O)[O-])=NNc1nc(-c2ccc(Cl)c(Cl)c2)cs1 (mixture of isomers) [4EGI-1]
Nature of the test: relative viability (nuclei count vs DMSO), 5 days (fraction); higher = more cells survive. The procedure, abridged:
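Hoechst staining, done together with fixation and permeabilisation, marked nuclei for 4× imaging and MetaXpress counting. This followed 5 days without medium change after lung cancer cell lines, kept overnight at 37 °C in 1536-well plates, were pinned with five library-drug doses (not always all listed) spaced by √10 on vehicle-anchored plates. Viability is the ratio of treated-well to vehicle-well nuclei, expressed as a median across plates. Plates passed only at control CV below 25% with at least one doubling.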

As to NCI-H1792, the relative viability (0.5 µM) turned out to be 0.99; the relative viability (1.581 µM) worked out at 1.1; the relative viability (5 µM) was 0.941; the relative viability (15.81 µM) is 0.903; the relative viability (50 µM) was 0.608.

For the origin of these results see the supplement of paper PMC10307832.
